Assay results taken from patent US20140051601A1, “METABOLOMIC PROFILING OF CANCER” (METABOLAN INC., priority 2006, published 2014).

Assays:
EGFR = EGFR (Homo sapiens, UniProt P00533); experiment: Immunoblot analysis of EGFR phosphorylation and total EGFR; settings: for total EGFR levels: upon treatment, PrEC
RWPE cells [1] = experiment: Sarcosine-induced invasion after pre-treatment with EGFR inhibitor; type: cell-based; settings: pre-treatment of RWPE cells with 10 μM
Excerpt: (§1) To investigate the biological role of sarcosine elevation in prostate cancer, prostate cancer cell lines VCaP, DU145, 22RV1 and LNCaP and their benign epithelial counterparts, primary benign prostate epithelial cells PrEC and immortalized benign RWPE prostate cells were used.

[2] = tested on: benign prostate epithelial cells; experiment: Modified Boyden chamber matrigel invasion assay, exogenous addition of amino acids; type: cell-based; settings: compared with sarcosine
Method: as §1
(§2) To determine if sarcosine plays a role in this process, it was added directly to non-invasive benign prostate epithelial cells. Alanine (an isomer of sarcosine) was used as a control for these experiments. […] The present invention is not limited to a particular mechanism. Indeed, an understanding of the mechanism is not necessary to practice the present invention.

RWPE cells [3] = experiment: Invasion upon exogenous sarcosine or glycine with siRNA knock-down of GNMT; type: cell-based
Method: as §2

src = experiment: Immunoblot analysis of src phosphorylation; type: cell-based; settings: sarcosine-treated PrEC compared to alanine-treated controls
Excerpt: (§3) Also total EGFR levels were elevated upon treatment with alanine or sarcosine. […]. […] This observation was further strengthened using both antibody-mediated inhibition of EGFRactivity and siRNA-mediated knock-down of receptor levels.

p38MAPK = experiment: Immunoblot analysis of p38MAPK phosphorylation; type: cell-based; settings: sarcosine-treated PrEC
Excerpt: as §3

[4] = control non-target siRNA-transfected cells

EGFR, sequence (P00533 25-1210): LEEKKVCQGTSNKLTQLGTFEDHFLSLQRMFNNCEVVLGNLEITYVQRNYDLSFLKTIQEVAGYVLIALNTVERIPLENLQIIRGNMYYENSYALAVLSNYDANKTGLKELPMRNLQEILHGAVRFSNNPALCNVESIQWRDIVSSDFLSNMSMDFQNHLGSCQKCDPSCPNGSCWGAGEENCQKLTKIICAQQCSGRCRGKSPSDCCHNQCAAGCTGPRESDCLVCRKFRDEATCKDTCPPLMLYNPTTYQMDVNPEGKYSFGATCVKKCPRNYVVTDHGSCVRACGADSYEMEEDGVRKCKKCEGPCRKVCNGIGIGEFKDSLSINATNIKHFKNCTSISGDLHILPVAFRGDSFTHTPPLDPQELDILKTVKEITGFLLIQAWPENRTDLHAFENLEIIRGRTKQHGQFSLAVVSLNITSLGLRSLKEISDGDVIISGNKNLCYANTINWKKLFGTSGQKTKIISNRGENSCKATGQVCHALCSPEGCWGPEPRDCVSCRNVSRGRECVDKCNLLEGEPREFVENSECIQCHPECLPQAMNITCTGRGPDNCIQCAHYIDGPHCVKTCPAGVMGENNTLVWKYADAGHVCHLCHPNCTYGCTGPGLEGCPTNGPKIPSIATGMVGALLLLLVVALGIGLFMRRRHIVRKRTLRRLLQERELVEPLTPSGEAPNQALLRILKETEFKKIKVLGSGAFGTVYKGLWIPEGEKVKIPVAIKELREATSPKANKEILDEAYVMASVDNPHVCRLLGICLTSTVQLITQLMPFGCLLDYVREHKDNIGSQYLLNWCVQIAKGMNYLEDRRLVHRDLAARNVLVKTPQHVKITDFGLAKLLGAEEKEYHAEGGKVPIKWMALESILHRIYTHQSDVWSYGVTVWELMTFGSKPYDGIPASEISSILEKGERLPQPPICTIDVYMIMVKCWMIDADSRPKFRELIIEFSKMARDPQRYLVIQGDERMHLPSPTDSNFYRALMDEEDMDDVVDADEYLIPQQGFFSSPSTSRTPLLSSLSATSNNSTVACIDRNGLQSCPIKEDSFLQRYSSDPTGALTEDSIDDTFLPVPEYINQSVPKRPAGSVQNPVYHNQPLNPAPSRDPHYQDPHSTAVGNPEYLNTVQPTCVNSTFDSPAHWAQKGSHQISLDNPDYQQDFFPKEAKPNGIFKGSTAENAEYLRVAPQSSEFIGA

| Compound | total EGFR levels (EGFR) | invasion upon exogenous amino acid addition, mean±SEM (RWPE cells [3]; GNMT knockdown) | invasion upon exogenous amino acid addition, mean±SEM (RWPE cells [3]; [4]) | also measured |
| --- | --- | --- | --- | --- |
| C[C@H](N)C(=O)O [alanine, reference compound] | elevated |  |  |  |
| C#Cc1cccc(Nc2ncnc3cc(OCCOC)c(OCCOC)cc23)c1 [erlotinib] |  |  |  | decrease in sarcosine-induced invasion (RWPE cells [1]): 2 fold |
| NCC(=O)O [glycine] |  | 0.20±0.03 | 0.46±0.04 | induction of invasion [2]: also induced invasion in these cells, although to a lesser degree than sarcosine |
| CNCC(=O)O [sarcosine, N-methylglycine] | elevated | 0.64±0.07 | 0.65±0.05 | src phosphorylation (src): time-dependent increase; p38MAPK phosphorylation (p38MAPK): phosphorylation of p38MAPK; EGFR phosphorylation (EGFR; sarcosine-treated PrEC compared to alanine-treated controls): time-dependent increase |
